Experimental data published in patent publication US10694742B2, “Composition comprising a pesticide and a hydroxyalkyl polyoxylene glycol ether” (BASF SE, priority 2014, dated 2020).

Tests used:
Septoria and Brown rust = experiment: Field trial winter wheat, yield; type: in vivo, winter wheat (var. Akteur); settings: for Yield Winter Wheat, Relative Yield (%): half rate (N/2) Epoxiconazole SC 125 applied twice at BBCH 32 and 51, adjuvant 150 ml/ha in tank mix, comparative experiment = 100.0
Experimental: (§1) Field studies were conducted on a Parabraunerde soil in accordance with GEP in southern Germany on commercially planted winter wheat (var. Akteur) and winter rapeseed (var. Genie), respectively, exposed to a maritime climate. The standard experimental design was a randomized complete block with 4 replicates. There was no artificial infestation. Fungicides were applied at their label rate (N) and when mixed with adjuvants in the tank, at half rate (N/2). Dose rate of adjuvants was 150 ml/ha. Efficacy was measured by yield in dt/ha. Following the analysis of variance a mean separation test (Student-Newman-Keuls) was applied at a 5% significance level. All treatments were fully selective.
Spray volume was 200 l/ha applied with an AirMix 110-03 nozzle at a pressure of 1.9 bar. Plots were in 2.5 m by 7 m large. Epoxiconazole SC 125 with a dispersing additive (based on naphthalene sulfonic acid formaldehyde condensation product, sodium salt) was applied twice at the growth stages (BBCH) 32 and 51. During the course of trial, there was a natural infestation of Septoria and Brown rust. In each treatment, the dose rate of adjuvants was 150 ml/ha.
(§2) For a quantitative measure, the yield of each treatment was determined.

Wheat plants = experiment: Uptake rate of pesticide into sprayed wheat leaves (HPLC-MS/MS); type: in vivo, Triticum aestivum variety Melon; settings: 125 g/ha epoxiconazole, 125 g/ha fluxapyroxad, 250 g/ha adjuvant compound; 200 l/ha; leaves sampled after 8 days
From the text: Wheat plants (Triticum aestivum variety Melon) were cultivated in the greenhouse for 6 weeks up to development stage BBCH 39. The plants were transferred to an automatic lab track sprayer and they were sprayed with 125 g/ha epoxiconazole, 125 g/ha fluxapyroxad, and 250 g/ha of the respective Compound 1-5 according to the following parameters:
Nozzle type: Air injector, ID 120 02 (Lechler, Germany)
Subsequently to spraying, the plants were cultivated again in the greenhouse under ambient conditions. After 8 days samples of 10-15 treated leaves were cut off and weighed.
Leaves were cut into small pieces, transferred into glass bottles and washed with 50% methanol in demineralized water as washing medium for 5 min. Then, the washing medium was separated from the leaves. The leaves were washed again with washing medium for 5 min. […]
Finally, the leaves were transferred to a vial containing the extraction medium (75% methanol, 20% water and 5% HCl) and homogenized using a Polytron PT 6100 dispersing unit (Kinematica, CH) for 2 min. […] The residue was solubilized in methanol/water 50:50 and analyzed by HPLC-MS/MS.
An Agilent 1100 series HPLC coupled to an Applied Biosystems API 3000 triple quadrupole mass spectrometer, equipped with an electro spray ionization source, was used. […] According to the recovery rate the measured sample values were corrected. […]

Puccinia triticina = experiment: Greenhouse biological activity on infected wheat; type: in vivo, Puccinia triticina on wheat (species Kanzler); settings: sprayed three days after infection, rated after ten days, three replicates
Experimental: The biological activity was assessed in a greenhouse on wheat (species “Kanzler”), which was infected with Puccinia triticina at two leafes stage and incubated for three days at high humidity. The plants were sprayed (spray volume 200 l/ha) with a composition comprising 50 ppm (10 g/ha or 2.5 g/ha dose rate) epoxiconazole and 100 ppm (20 g/ha) of the respective Compounds 1-7. In the comparative example no adjuvant was added. The plants were further cultivated for ten days at 20-24° C. and 60-90% relative humidity. Finally, the percentage of the infected leaf area (pustules) was visually inspected. Each value was based on three replicates.

Sclerotinia sp. = experiment: Field trial rapeseed, yield; type: in vivo, winter rapeseed (var. Genie); settings: half rate (N/2) Cantus Gold SC applied at BBCH 51; adjuvant 150 ml/ha in tank mix; comparative experiment = 100.0
Experimental: as §1
Spray volume was 250 l/ha applied with an AirMix 110-03 nozzle at a pressure of 2.1 bar. Plots were in 3 m by 7 m large. Cantus® Gold SC (200 g/l Boscalid and 200 g/l Dimoxystrobin with a dispersing additive based on benzenesulfonic acid, hydroxy-, polymer with formaldehyde, phenol and urea, sodium salt) was applied at the growth stage (BBCH) 51 of rapeseed on a Parabraunerde soil. During the course of trial, there was a natural infestation of Sclerotinia sp. In each treatment, the dose rate of adjuvants was 150 ml/ha.
as §2

| SMILES | Yield Winter Wheat, Relative Yield (%) (Septoria and Brown rust) | Epoxiconazole Uptake Rate [%] (Wheat plants) | Infected leaf area 2,5 g/ha dose rate (Puccinia triticina; epoxiconazole 2,5 g/ha + 100 ppm (20 g/ha) adjuvant compound) [%] | Infected leaf area 10 g/ha dose rate (Puccinia triticina; epoxiconazole 10 g/ha + 100 ppm (20 g/ha) adjuvant compound) [%] | Improvement of yield of the half rate (N/2) compared to N/2 alone, wheat (Septoria and Brown rust; N/2 epoxiconazole + adjuvant 150 ml/ha, Student-Newman-Keuls, 5% significance level) | Yield Rapeseed, Relative Yield (%) (Sclerotinia sp.) |
| --- | --- | --- | --- | --- | --- | --- |
| Fc1ccc([C@]2(Cn3cncn3)O[C@H]2c2ccccc2Cl)cc1 (racemic) [epoxiconazole] | 103.5 | 19 | 78 | 48 | – | – |
| CCCCCCCCC(O)COCCOCCOCCOCCOCCOCCOCCOCCOCCOCC(CC)CCCC (stereo not shown) [Compound C] | 109.4 | – | – | – | significant improvements | 104.6 |
